“Also recorded” adds a separate entry of the source.
How the values were obtained:
Format in all cases: cell-based
[1] = tested on: human scalp hair follicles; assay: Hair shaft elongation of organ-cultured hair follicles
Procedure: (§1) Details regarding tissue specimen origin used in the present example are as described in Example 2 above.
Hair shaft length measurements of HFs were performed on individual HFs using a Zeiss inverted binocular microscope with an eyepiece measuring graticule.
(§2) To evaluate apoptotic cells in colocalization with a proliferation marker Ki-67, a Ki-67/terminal dUTP nick-end labeling (TUNEL) double-staining method was used. Cryostat sections were fixed in paraformaldehyde and ethanol-acetic acid (2:1) and labeled with a digoxigenin-deoxy-UTP (ApopTag fluorescein in situ apoptosis detection kit; Intergen, Purchase, N.Y.) in the presence of terminal deoxynucleotidyl transferase, followed by incubation with a mouse anti-Ki-67 antiserum (1:20 in PBS overnight at 4 C; Dako, Glostrup, Denmark). TUNEL-positive cells were visualized by an antidigoxigenin fluorescein isothiocyanate-conjugated antibody (ApopTag kit), whereas Ki-67 was detected by a rhodamine-labeled goat antimouse antibody (Jackson ImmunoResearch, West Grove, Pa.). Negative controls were performed by omitting terminal deoxynucleotidyl transferase and the Ki-67 antibody. Counterstaining was performed with 4′,6-diamidino-2-phenylindole (DAPI) (Roche Molecular Biochemicals GmbH, Mannheim, Germany). Quantitative immunohistomorphometry was performed; Ki-67-, TUNEL-, or DAPI-positive cells were counted in a previously defined reference region of the HF matrix, and the percentage of Ki-67/TUNEL-positive cells were determined. Statistical analysis was performed using a two-tailed Student's t-test for unpaired samples. For meta-analysis purposes, a total of six assays (each with HFs from a different female individual) were run. In order to avoid data distortion by individual experiments, rigid exclusion criteria were defined that allowed to exclude one individual experiment (out of 5-6) per read-out parameter. Since these exclusion criteria differed for each study parameter, different experiments (i.e. one out of 6) were excluded for each assay parameter. […]

[2] = tested on: keratin K15 expression; assay: K15 quantitative immunohistochemistry in organ-cultured human scalp hair follicles; conditions: for Keratin-15 immunoreactivity: all concentrations tested, human anagen VI scalp HF organ culture, vs vehicle
Procedure: (§3) Normal human scalp skin was obtained from 6 women undergoing routine face-lift surgery after informed consent. All experiments were performed according to Helsinki guidelines, with appropriate ethics committee approval.
(§4) Normally pigmented anagen VI hair follicles (HFs) (grey/white HFs were excluded from the study) were microdissected from normal human scalp skin and organ cultured following the Philpott model. Compound A or vehicle was administered once for each change of medium (i.e. every 48 h/72 h).
To investigate keratin K15 expression, the tyramide signal amplification method was used as previously described (Kloepper et al., 2008). Briefly, acetone fixed cryosections were washed three times for 5 min using TNT (Tris-HCL NaCl Tween) buffer (0.1 mol/l Tris-HCl, pH 7.5; containing 0.15 mol/l NaCl and 0.05% Tween 20). Next, horseradish peroxidase was blocked by washing with 3% H2O2 in phosphate-buffered saline (PBS) for 15 min. Preincubation was performed with the incubation of avidin and biotin for 15 min and 5% goat normal serum in TNT for 30 min with washing steps in between. Mouse anti-human K15 (clone LHK15, Chemicon, Billerica, USA) was diluted in TNT and incubated overnight at 4° C. followed by a biotinylated secondary antibody goat anti-mouse (1:200 in TNT) for 45 min at RT. Next, streptavidin horseradish peroxidase (TSA kit; Perkin-Elmer, Boston, Mass., USA) was administered (1:100 in TNT) for 30 min at RT. […] The intensity of the immunostaining was quantified by ImageJ software (National Institutes of Health). The staining intensity of defined reference regions in the HF was measured and compared between control and N Compound A-treated groups. The percentage of K15-positive cells in comparison to the total amount of cells in the ORS was calculated.
Statistical analysis was performed using a two-tailed Student's t-test for unpaired samples. […] In order to avoid data distortion by individual experiments, rigid exclusion criteria were defined that allowed to exclude one individual experiment (out of 5-6) per read-out parameter. […]

[3] = tested on: K19 expression; assay: K19 quantitative immunohistochemistry in organ-cultured human scalp hair follicles; conditions: human scalp HF organ culture; for number of K19-positive cells relative to control: cells in the ORS
Procedure: as §3, §4
A previously described protocol was used to investigate K19 expression (Kloepper et al., 2008). Briefly, acetone-fixed cryosections were pre-treated with goat serum (10% in Tris-buffered saline, Dako). The sections were incubated first with primary antibodies against K19 (mouse anti-human: K19-1:10; overnight, at 4° C.; PROGEN, Heidelberg, Germany;) and then with FITC-labeled goat anti-mouse (1:200 in TBS, for 45 min, RT, Jackson ImmunoResearch) immunoglobulins as secondary antibodies. Counterstaining was performed with DAPI (Boehringer Mannheim, Mannheim, Germany). The intensity of this immunostaining was quantified by ImageJ software (National Institutes of Health). The staining intensity of defined reference regions in the HF was measured and compared between control and Compound A-treated groups. The percentage of K19-positive cells in comparison to the total amount of cells in the ORS was calculated.
Statistical analysis was performed using a two-tailed Student's t-test for unpaired samples. For meta-analysis purposes, a total of six assays (each with HFs from a different female individual) were run. […] In order to avoid data distortion by individual experiments, rigid exclusion criteria were defined that allowed to exclude one individual experiment (out of 5-6) per read-out parameter. Since these exclusion criteria differed for each study parameter, different experiments (i.e. one out of 6, and one out of 5 in the case of keratin 19 analysis) were excluded for each assay parameter. […]

[4] = tested on: human scalp hair follicles; assay: HF cycle staging (anagen/catagen) of organ-cultured hair follicles; conditions: all concentrations, pooled data
Procedure: as §1
HF cycle staging was carried out according to previously defined morphological criteria, and the percentage of HFs in anagen and early, mid, or late catagen was determined.
To evaluate apoptotic cells in colocalization with a proliferation marker Ki-67, a Ki-67/terminal dUTP nick-end labeling (TUNEL) double-staining method was used. […] TUNEL-positive cells were visualized by an antidigoxigenin fluorescein isothiocyanate-conjugated antibody (ApopTag kit), whereas Ki-67 was detected by a rhodamine-labeled goat antimouse antibody (Jackson ImmunoResearch, West Grove, Pa.). […] Quantitative immunohistomorphometry was performed; Ki-67-, TUNEL-, or DAPI-positive cells were counted in a previously defined reference region of the HF matrix, and the percentage of Ki-67/TUNEL-positive cells were determined. […] In order to avoid data distortion by individual experiments, rigid exclusion criteria were defined that allowed to exclude one individual experiment (out of 5-6) per read-out parameter. […]

[5] = tested on: human scalp hair follicles; assay: LDH measurement in supernatant of hair follicle organ culture (cytotoxicity); conditions: for LDH activity in the supernatant: 0.1 mM dose, day 6, pooled data
Procedure: as §1
LDH activity in the supernatant can serve as an indicator of cytotoxicity and was measured following the manufacturer's instructions (Cytotoxicity Detection Kit; Roche, Mannheim, Germany). The absorbance of the samples was measured at 490 nm using an ELISA plate-reader.
as §2, with “parameter.” for “parameter. Since these exclusion criteria differed for each study parameter, different experiments (i.e. one out of 6) were excluded for each assay parameter.”

[6] = listed as N-acetyl-(R)-(−)-3-(4-aminophenyl)-2-methoxypropionic acid

CO[C@H](Cc1ccc(NC(C)=O)cc1)C(=O)O [Compound A, N-acetyl-(R)-(−)-3-(4-aminophenyl)-2-methoxypropionic acid]
hair shaft elongation ([1]; high dose (1 mM), day 6, pooled data): slightly, but significantly, inhibited; also recorded: inhibits
hair shaft elongation ([1]; high dose (1 mM), day 6, pooled data, listed as N-acetyl-(R)-(−)-3-(4-aminophenyl)-2-methoxypropionic acid): inhibition
hair shaft elongation ([1]; lower concentrations (below 1 mM)): did not have an effect
Keratin-15 immunoreactivity [2]: strongly stimulated
Keratin-15 immunoreactivity [2, 6]: stimulation
number of K15-positive cells ([2]; human scalp HF organ culture, cells in the ORS): did not increase
Keratin 19 immunoreactivity ([3]; all concentrations tested, vs vehicle): strongly stimulated
number of K19-positive cells relative to control [3]: stimulating effect
number of K19-positive cells relative to control [3, 6]: increased numbers
hair cycle effect (catagen induction) [4]: induced catagen; also recorded: catagen-inducing effect
hair cycle effect (catagen induction) [4, 6]: trend toward catagen
LDH activity in the supernatant [5]: slight increase
LDH activity in the supernatant [5, 6]: increase
Compound-associated HF toxicity ([5]; under assay conditions, from LDH activity): very low, if any
